Source: ChEMBL document CHEMBL1697781, “Assessment of the health effects of chemicals in humans: II. Construction of an adverse effects database for QSAR modeling” (Curr Drug Discov Technol, 2004)

Assays:
Settings in all cases: human; call rule not given here
Hepatotoxicity [1] = test: FDA HLAED, gamma-glutamyl transferase (GGT) increase
Hepatotoxicity [2] = test: FDA HLAED, serum glutamic oxaloacetic transaminase (SGOT) increase
Hepatotoxicity [3] = test: FDA HLAED, liver enzyme composite activity
Hepatotoxicity [4] = test: FDA HLAED, lactate dehydrogenase (LDH) increase
Hepatotoxicity [5] = test: FDA HLAED, serum glutamic pyruvic transaminase (SGPT) increase
Hepatotoxicity [6] = test: FDA HLAED, alkaline phosphatase increase
For GGT Increase - Index Value in this document: reference of the scale not given here.
For LDH Increase - Index Value in this document: reference of the scale not given here.

Row | SMILES | GGT Increase - Activity Score (Hepatotoxicity [1]) | GGT Increase - Index Value (Hepatotoxicity [1]) | GGT Increase - Number of Reports (Hepatotoxicity [1]) | SGOT Increase - Activity Score (Hepatotoxicity [2]) | SGOT Increase - Index Value (Hepatotoxicity [2]) | SGOT Increase - Number of Reports (Hepatotoxicity [2]) | LDH Increase - Activity Score (Hepatotoxicity [4]) | LDH Increase - Index Value (Hepatotoxicity [4]) | LDH Increase - Number of Reports (Hepatotoxicity [4]) | SGPT Increase - Activity Score (Hepatotoxicity [5]) | SGPT Increase - Index Value (Hepatotoxicity [5]) | SGPT Increase - Number of Reports (Hepatotoxicity [5]) | Alkaline Phosphatase Increase - Activity Score (Hepatotoxicity [6]) | Alkaline Phosphatase Increase - Index Value (Hepatotoxicity [6]) | Alkaline Phosphatase Increase - Number of Reports (Hepatotoxicity [6]) | Composite Activity - Active (Hepatotoxicity [3]) | Composite Activity - Marginal (Hepatotoxicity [3]) | Composite Activity - Score (Hepatotoxicity [3]) | further results
1 | O=C(O)COCCN1CCN(C(c2ccccc2)c2ccc(Cl)cc2)CC1 (centres undefined) [CETIRIZINE] | Inactive | 0.6 | < 4 | Inactive | 1 | < 4 | Inactive | 1 | < 4 | Inactive | 1.3 | >= 4 | Inactive | 0 | < 4 | – | – | – | Composite Activity - Active (Hepatotoxicity [3]; Liver): 0; Composite Activity - Marginal (Hepatotoxicity [3]; Liver): 0; Composite Activity - Score (Hepatotoxicity [3]; Liver): Inactive
2 | C[C@H](CCC(=O)O)[C@H]1CC[C@H]2[C@@H]3[C@H](O)C[C@@H]4C[C@H](O)CC[C@]4(C)[C@H]3CC[C@]12C [CHENODIOL] | Inactive | 0 | < 4 | Inactive | 0 | < 4 | Inactive | 0 | < 4 | Inactive | 0 | < 4 | Inactive | 0 | < 4 | 0 | 0 | Inactive | –
3 | Cc1cc(C2CCCCC2)n(O)c(=O)c1 [CICLOPIROX] | Inactive | 0 | < 4 | Inactive | 0 | < 4 | Inactive | 0 | < 4 | Inactive | 0 | < 4 | Inactive | 0 | < 4 | 0 | 0 | Inactive | –
4 | Nc1ccn(C[C@@H](CO)OCP(=O)(O)O)c(=O)n1.O.O [CIDOFOVIR] | Inactive | 0 | < 4 | Inactive | 46.1 | < 4 | Inactive | 46.1 | < 4 | Inactive | 0 | < 4 | Active | 92.2 | < 4 | 1 | 0 | Inactive | –
5 | CCn1nc(C(=O)O)c(=O)c2cc3c(cc21)OCO3 [CINOXACIN] | Inactive | 0 | < 4 | Active | 16.9 | >= 4 | Inactive | 0 | < 4 | Active | 15.1 | >= 4 | Inactive | 0 | < 4 | 2 | 0 | Active | –
6 | O=C(O)c1cn(C2CC2)c2cc(N3CCNCC3)c(F)cc2c1=O [CIPROFLOXACIN] | Inactive | 0.8 | >= 4 | Marginally Active | 3.1 | >= 4 | Inactive | 0.9 | >= 4 | Inactive | 2.1 | >= 4 | Inactive | 2.3 | >= 4 | – | – | – | Composite Activity - Active (Hepatotoxicity [3]; Liver): 0; Composite Activity - Marginal (Hepatotoxicity [3]; Liver): 1; Composite Activity - Score (Hepatotoxicity [3]; Liver): Inactive
7 | COc1cc(N)c(Cl)cc1C(=O)NC1CCN(CCCOc2ccc(F)cc2)CC1OC (centres undefined) [CISAPRIDE] | Inactive | 0.2 | < 4 | Inactive | 0.3 | >= 4 | Inactive | 0.1 | < 4 | Inactive | 0.4 | >= 4 | Inactive | 0.2 | >= 4 | 0 | 0 | Inactive | –
8 | Nc1nc(Cl)nc2c1ncn2[C@H]1C[C@H](O)[C@@H](CO)O1 [CLADRIBINE] | Inactive | 8.1 | < 4 | Inactive | 16.2 | < 4 | Inactive | 0 | < 4 | Inactive | 16.2 | < 4 | Inactive | 16.2 | < 4 | 0 | 0 | Inactive | –
